Assay [1] addresses T1, MUC1-CD (Homo sapiens, UniProt P15941).
T1 construct: the 72 aa cytoplasmic domain (CD); His; made in house
T1 sequence (P15941 1184-1255 limits assumed): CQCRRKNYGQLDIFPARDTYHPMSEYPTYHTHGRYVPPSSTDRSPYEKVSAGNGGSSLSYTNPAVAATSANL
As to the kind of experiment: Plate-based MUC1-CD dimerization inhibition assay (primary screening). In kind it is biochemical. The method, then:
FIG. 6—Schematic Illustration of Primary HTS Screening Assay for MUC1-CD Dimerization. MUC1-CD protein was coated on a 96 well plate and then incubated with Biotinylated MUC1-CD that binds to non-biotinylated MUC1-CD protein by dimer formation. Bound biotinylated MUC1-CD protein was detected by incubation with Streptavin-HRP+peroxidase substrate system.
FIGS. 11A-C—Identification of MUC1-CD dimerization inhibitors in a small molecule screen. (FIG. 11A) Schematic representation of the MUC1-C subunit with the 58 amino acid (aa) extracellular domain (ECD), the 28 aa transmembrane domain (TD) and the 72 aa cytoplasmic domain (CD; SEQ ID NO: 1). The sequence of MUC1-CD is included with highlighting of the CQC dimerization motif. (FIG. 11B) The assay for identification of MUC1-CD dimerization inhibitors is depicted with the following steps: (i) coating of MUC1-CD onto a microplate, (ii) adding soluble biotinylated MUC1-C and […] compound, and (iii) addition of streptavidin-HRP and then peroxide with conversion by HRP to a blue color. The signal is measured by EnVision and proportional to the amount of bound biotin-labeled MUC1-CD.
FIGS. 12A-D—Apigenin is an inhibitor of MUC1-CD dimerization in vitro and in cells. (FIG. 12A) Structures of apigenin and its analogue baicalein. Using the in vitro screening assay, dimerization of MUC1-CD was assessed in the presence of 100 μM apigenin or 100 μM baicalein each dissolved in 0.1% DMSO. The results (mean±SD of 3 determinations) are expressed as percentage of control dimerization in the presence of DMSO alone. (FIG. 12B) MUC1-CD dimerization was assessed in the presence of the indicated concentrations of apigenin in the in vitro screening assay. […] (FIG. 12C) Soluble MUC1-CD was incubated in the presence of 1% DMSO, 1 mM apigenin or 1 mM baicalein for 1 h at room temperature. Monomers and dimmers were assessed by electrophoresis in a non-reducing gel and immunoblotting with anti-MUC1-C. (FIG. 12D) 293 cells were transiently transfected to express an empty vector or GFP-MUC1-CD and Flag-MUC1-CD. At six hours after transfection, the cells were left untreated, and treated with 75 μM apigenin or baicalein for 3 days. Whole-cell lysates were precipitated with anti-Flag, and the precipitates were immunoblotted with the indicated antibodies.
Multi-well (96- or 384-well) plates are coated with non-biotinylated MUC1-CD, and biotinylated MUC1-CD is added to the plates to initiate MUC1-CD dimerization or oligomerization. A luminescent substrate for biotin binding is added to the plate, followed by washing. Resulting fluorescence is detected by luminescence detection at absorbance 405 nm. A complete schematic illustration of this assay is described in […]. Test compounds are added at multiple concentrations to the plates and, following incubation and washing, the plates are read for luminescent detection. The formation of MUC1-CD dimers is detected.
To develop a HTS assay for compounds that inhibit MUC1-CD dimerization, the inventors generated purified His-tagged MUC1-CD protein. They also generated a biotin-labeled His-tagged MUC1-CD protein using a standard biotinylation kit. Biotinylated and non-biotinylated proteins were purified through Nickel columns.
The inventors coated 96- or 384-well plates with non-biotinylated MUC1-CD protein and added biotinylated MUC1-CD protein to the plates to initiate MUC1-CD/MUC1-CD dimerization or oligomerization. They then added a substrate to the plate which will bind to the biotinylated protein (only at the dimer or oligomer state) and the resultant fluorescence was detected by luminescence detection at absorbance 405 nm. A complete schematic illustration of this assay is described in FIG. 6.
Individual compounds from the chemical libraries were then added at multiple concentrations (0.01 μM to 100 μM) to the plates and following incubation and washing, the plates were read by luminescence detection at […]. […]

Assay [2] deals with T2, MUC1-C (Homo sapiens, UniProt P15941).
T2 sequence (P15941 1098-1255 limits assumed): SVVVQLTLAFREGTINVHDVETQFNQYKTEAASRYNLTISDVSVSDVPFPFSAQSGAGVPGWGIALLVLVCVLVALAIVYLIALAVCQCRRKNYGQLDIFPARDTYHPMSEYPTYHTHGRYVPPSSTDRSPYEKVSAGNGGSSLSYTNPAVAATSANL
The assay can be described thus: Immunoblot of whole cell and nuclear MUC1-C levels in ZR-75-1 cells. Conditions: ZR-75-1, 5 μM peptide, 3 d; for nuclear MUC1-C levels: nuclear lysates; for cellular MUC1-C levels: whole cell lysates. Also noted: Human ZR-75-1 and MCF-7 breast cancer cells overexpress endogenous MUC1; endogenous in cells; host or cells: ZR-75-1; MCF-7. It counts as cell-based. As for the experimental part: FIGS. 2A-C. MUC1/CQC peptide blocks nuclear localization of MUC1-C. (FIG. 2A) ZR-75-1 cells were incubated with 5 μM FITC-labeled MUC1/CQC peptide for the indicated times and then analyzed by flow cytometry. The mean fluorescence index (MFI) is included in each of the panels. (FIGS. 2B-C) ZR-75-1 (FIG. 2B) and MCF-7 (FIG. 2C) cells were incubated in the presence of 5 μM MUC1/CQC or MUC1/AQA peptide for 3 d. Whole cell lysates (WCL) (left panels) and nuclear lysates (right panels) were immunoblotted with the indicated antibodies.
Whole cell and nuclear lysates were prepared as described (Leng et al., 2007). Soluble proteins were subjected to immunoprecipitation with anti-Flag (Sigma, St. Louis, Mo.). Immunoprecipitates and soluble proteins were analyzed by immunoblotting with anti-His (Cell Signaling Technology, Danvers, Mass.), anti-GFP (Millipore, Danvers, Mass.), anti-Flag, anti-MUC1-C (Ab1; NeoMarkers, Fremont, Calif.), anti-lamin B (EMD, La Jolla, Calif.) or anti-β-actin (Sigma). Reactivity was detected with horseradish peroxidase-conjugated second antibodies and chemiluminescence.
Background: Immunoblotting shows a protein as a band on a membrane.

Setting [3] is: 100 μM, compared to vehicle (DMSO).

The term inhibition denotes the relative decrease from the control value, in per cent. Low readings indicate a response near the control, high ones a response far below the control. Usually IC50 stands for the point on the concentration scale where inhibition reaches its midpoint. In assay [1] (setting [3]), `O=c1cc(-c2ccc(O)cc2)oc2cc(O)cc(O)c12` [Apigenin, 4′,5,7-trihydroxyflavone] returned an inhibition at 100 µM of about 80%. In addition, in assay [1] (library of Table 1), the “initial library screen result” value is recorded as “MUC1 dimerization inhibitory compounds”. For the same compound, the half-inhibitory concentration (IC50) in assay [1] (range of concentrations, read-out: 50% inhibition (IC50) of MUC1-CD dimerization) worked out at 76 µM.

Regarding `O=c1cc(-c2ccccc2)oc2cc(O)c(O)c(O)c12` [Baicalein, 5,6,7-trihydroxyflavone, reference compound], in assay [1] (setting [3]), the “inhibition of MUC1-CD dimerization” value was “little if any effect”.

Turning to `CC[C@H](C)[C@H](NC(=O)[C@H](CC(=O)O)NC(=O)[C@H](CC(C)C)NC(=O)[C@H](CCC(N)=O)NC(=O)CNC(=O)[C@H](Cc1ccc(O)cc1)NC(=O)[C@H](CC(N)=O)NC(=O)[C@H](CCCCN)NC(=O)[C@H](CCCNC(=N)N)NC(=O)[C@H](CCCNC(=N)N)NC(=O)[C@H](CS)NC(=O)[C@H](CCC(N)=O)NC(=O)[C@H](CS)NC(=O)[C@@H](CCCNC(=N)N)NC(=O)[C@@H](CCCNC(=N)N)NC(=O)[C@@H](CCCNC(=N)N)NC(=O)[C@@H](CCCNC(=N)N)NC(=O)[C@@H](CCCNC(=N)N)NC(=O)[C@@H](CCCNC(=N)N)NC(=O)[C@@H](CCCNC(=N)N)NC(=O)[C@@H](CCCNC(=N)N)NC(=O)[C@H](N)CCCNC(=N)N)C(=O)N[C@@H](Cc1ccccc1)C(=O)N1CCC[C@H]1C(=O)O` [MUC1/CQC], in assay [2], the “nuclear MUC1-C levels” value is “decreases in nuclear MUC1-C levels” and the “cellular MUC1-C levels” value is recorded as “no effect”.

Turning to “MUC1/AQA: control peptide in which the CQC motif was altered to AQA (SEQ ID NO: 11) (AQARRKNYGQLDIFP) [reference compound]”, in assay [2], the “nuclear MUC1-C levels” value was “not” and the “cellular MUC1-C levels” value was “no effect”.

Values taken from patent US8952054B2, “Small molecule inhibitors of MUC1 and methods of identifying the same” (Dana-Farber Cancer Institute, Inc., priority 2010, dated 2015).
